{"source": "patent US20220362386A1", "about": "“LIQUID COMPOSITIONS COMPRISING A LEVODOPA AMINO ACID CONJUGATE AND USES THEREOF” (NeuroDerm, Ltd., priority 2019, published 2022)", "key": {"[1]": {"test": "Human blood stability test", "type": "in vitro ADME", "parameters": "key: slope of % decrease of remaining compound over time; higher = faster metabolism", "conditions": "slope of the percentage decrease of remaining compound; substrate 10 μM; 0-60 minutes", "description": "The stability of several LDAA compounds in human blood was tested. The substrate concentration was 10 μM and the incubation time 0, 5, 15, 30 and 60 minutes.\nThe results are described in Table 19, wherein the results describe the Ke, i.e., the slope of the percentage decrease of the remaining amount of the compound, measured at each of the above time points, such that the higher the Ke the faster the metabolism."}, "[2]": {"test": "Protein binding, solid phase extraction (SPE) method", "type": "in vitro ADME, human", "conditions": "human, human plasma, 1.0E−05M, SPE sample preparation", "method_in_brief": "(§1)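 Human plasma spiked with test compound at 10 μM, diluted 1:1 with 4% aqueous phosphoric acid and mixed 15 min before solid phase extraction. Mixed-mode cation exchange (MCX) sorbent used a 2% formic acid wash and 5% NH4OH/methanol elution. Anion exchange (MAX) sorbent used a 5% NH4OH wash and 2% formic acid/methanol elution.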"}, "[3]": {"test_system": "human plasma", "test": "Protein binding, solid phase extraction (SPE) method", "type": "in vitro ADME", "conditions": "1.0E−05M; SPE sample preparation", "method_in_brief": "as §1"}, "[4]": {"test": "in vitro", "conditions": "human"}, "[5]": {"test": "Comparative formulation tests, physical stability (Tables 32a-c, 33a-c)", "type": "physicochemical", "conditions": "LDAA TFA salt/CD formulation; for Physical stability (visual), Day 1: Day 1, room temperature; for Physical stability (visual), Day 2: Day 2, room temperature; for Physical stability (visual), Day 5: Day 5, room temperature after two days at 2-8° C.; for Physical stability (visual), Day 6: Day 6, room temperature after two days at 2-8° C.; for Physical stability (visual), Day 40: Day 40, returned to 2-8° C.", "description": "It is noted that the formulations were similarly to those above; however, CD was added, and further, the amounts of the antioxidants, i.e., ascorbic acid and NAC, were added at three different concentrations, as detailed in Tables 32a-c below. Further, an additional amount of arginine was added to the solution in order to adjust the pH to a physiologically acceptable pH.\nThe formulations prepared as detailed in Tables 32a, 32b and 32c were (a) held at room temperature for two days; (b) transferred to a refrigerator (2-8° C.) for two days; and (c) transferred from the refrigerator to room temperature for an additional two days, during which they were assessed again for precipitants. The formulations were then returned to the refrigerator (2-8° C.) and assessed for precipitants on day 40. The physical stability of each formulation was assessed on the first two days and again on the last two days. The physical stability of the formulations was assessed visually. A clear solution was considered to be stable, while a solution comprising precipitants was considered to be physically unstable. The stability results of the formulations of Tables 32a, 32b and 32c are detailed in Tables 33a, 33b and 33c, respectively."}, "[6]": {"conditions": "Caco-2, pH 7.4, Percent Recovery 1st"}, "[7]": {"conditions": "Caco-2, pH 7.4, Percent Recovery 2nd"}, "[8]": {"conditions": "Caco-2, pH 7.4, Percent Recovery Mean"}, "[9]": {"conditions": "Caco-2, pH 7.4, Permeability 1st"}, "[10]": {"conditions": "Caco-2, pH 7.4, Permeability 2nd"}, "[11]": {"conditions": "Caco-2, pH 7.4, Permeability Mean"}, "[12]": {"conditions": "NB 144-15, ~0.1% Asc + ~0.1% NAC"}, "[13]": {"conditions": "NB 144-18, ~0.4% Asc + ~0.4% NAC"}, "[14]": {"conditions": "NB 144-20, ~0.8% Asc + ~0.8% NAC"}}, "note": "Structures can show the parent of a compound that is named as a salt. Where two headings read alike, the source gives them in different places. Non-standard residues stand in square brackets, D forms with d. Residues, ends and D or L forms follow the SMILES beside them. Dopa = N[C@@H](Cc1ccc(O)c(O)c1)C(=O)O", "data": [{"smiles": "N[C@@H](Cc1ccc(O)c(O)c1)C(=O)N[C@@H](Cc1ccc(O)cc1)C(=O)O", "note": "[LD-Tyr TFA salt, Levodopa Tyrosine TFA Salt] (H-[Dopa]-Tyr-OH)", "values": [{"measurement": "Ke", "setting": "[1]", "value": 0.0426}, {"measurement": "recovery at 10 μM", "setting": "[2]; read-out: % Recovery 1st", "value": 64, "unit": "%"}, {"measurement": "recovery at 10 μM", "setting": "[2]; read-out: % Recovery 2nd", "value": 72, "unit": "%"}, {"measurement": "recovery at 10 μM", "setting": "[2]; read-out: % Recovery Mean", "value": 68, "unit": "%"}, {"measurement": "% Protein Bound 1st", "setting": "[3]", "value": 11, "unit": "%"}, {"measurement": "% Protein Bound 2nd", "setting": "[3]", "value": 32.5, "unit": "%"}, {"measurement": "% Protein Bound Mean", "setting": "[3]", "value": 22, "unit": "%"}, {"measurement": "recovery at 40 min, 10 μM", "setting": "[4]; [6]", "value": 82, "unit": "%"}, {"measurement": "recovery at 40 min, 10 μM", "setting": "[4]; [7]", "value": 97, "unit": "%"}, {"measurement": "recovery at 40 min, 10 μM", "setting": "[4]; [8]", "value": 89, "unit": "%"}, {"measurement": "Papp B→A at 40 min, 10 μM", "setting": "[4]; [9]", "value": 0.1, "unit": "nm/s"}, {"measurement": "Papp B→A at 40 min, 10 μM", "setting": "[4]; [10]", "value": 0.1, "unit": "nm/s"}, {"measurement": "Papp B→A at 40 min, 10 μM", "setting": "[4]; [11]", "value": "< 0.1", "unit": "nm/s"}, {"measurement": "Physical stability (visual), Day 1", "setting": "[5]; [12]", "value": "Stable"}, {"measurement": "Physical stability (visual), Day 2", "setting": "[5]; [12]", "value": "Stable"}, {"measurement": "Physical stability (visual), Day 5", "setting": "[5]; [12]", "value": "Precipitated"}, {"measurement": "Physical stability (visual), Day 6", "setting": "[5]; [12]", "value": "Precipitated"}, {"measurement": "Physical stability (visual), Day 40", "setting": "[5]; [12]", "value": "Precipitated"}, {"measurement": "Physical stability (visual), Day 1", "setting": "[5]; [13]", "value": "Stable"}, {"measurement": "Physical stability (visual), Day 2", "setting": "[5]; [13]", "value": "Stable"}, {"measurement": "Physical stability (visual), Day 5", "setting": "[5]; [13]", "value": "Stable"}, {"measurement": "Physical stability (visual), Day 6", "setting": "[5]; [13]", "value": "Stable"}, {"measurement": "Physical stability (visual), Day 40", "setting": "[5]; [13]", "value": "Stable"}, {"measurement": "Physical stability (visual), Day 1", "setting": "[5]; [14]", "value": "Stable"}, {"measurement": "Physical stability (visual), Day 2", "setting": "[5]; [14]", "value": "Stable"}, {"measurement": "Physical stability (visual), Day 5", "setting": "[5]; [14]", "value": "Stable"}, {"measurement": "Physical stability (visual), Day 6", "setting": "[5]; [14]", "value": "Stable"}, {"measurement": "Physical stability (visual), Day 40", "setting": "[5]; [14]", "value": "Stable"}]}, {"smiles": "NCCCC[C@H](NC(=O)[C@@H](N)Cc1ccc(O)c(O)c1)C(=O)O", "note": "[LD-Lys TFA salt, Levodopa Lysine TFA Salt] (H-[Dopa]-Lys-OH)", "values": [{"measurement": "Ke", "setting": "[1]", "value": 0.0655}, {"measurement": "recovery at 10 μM", "setting": "[2]; read-out: % Recovery 1st", "value": 79, "unit": "%"}, {"measurement": "recovery at 10 μM", "setting": "[2]; read-out: % Recovery 2nd", "value": 63, "unit": "%"}, {"measurement": "recovery at 10 μM", "setting": "[2]; read-out: % Recovery Mean", "value": 71, "unit": "%"}, {"measurement": "% Protein Bound 1st", "setting": "[3]", "value": 0.3, "unit": "%"}, {"measurement": "% Protein Bound 2nd", "setting": "[3]", "value": 18.7, "unit": "%"}, {"measurement": "% Protein Bound Mean", "setting": "[3]", "value": 10, "unit": "%"}, {"measurement": "recovery at 40 min, 10 μM", "setting": "[4]; [6]", "value": 79, "unit": "%"}, {"measurement": "recovery at 40 min, 10 μM", "setting": "[4]; [7]", "value": 86, "unit": "%"}, {"measurement": "recovery at 40 min, 10 μM", "setting": "[4]; [8]", "value": 82, "unit": "%"}, {"measurement": "Papp B→A at 40 min, 10 μM", "setting": "[4]; [9]", "value": 0.3, "unit": "nm/s"}, {"measurement": "Papp B→A at 40 min, 10 μM", "setting": "[4]; [10]", "value": 0.3, "unit": "nm/s"}, {"measurement": "Papp B→A at 40 min, 10 μM", "setting": "[4]; [11]", "value": "< 0.3", "unit": "nm/s"}, {"measurement": "Physical stability (visual), Day 1", "setting": "[5]; [12]", "value": "Precipitated"}, {"measurement": "Physical stability (visual), Day 2", "setting": "[5]; [12]", "value": "Precipitated"}, {"measurement": "Physical stability (visual), Day 5", "setting": "[5]; [12]", "value": "Precipitated"}, {"measurement": "Physical stability (visual), Day 6", "setting": "[5]; [12]", "value": "Precipitated"}, {"measurement": "Physical stability (visual), Day 40", "setting": "[5]; [12]", "value": "Precipitated"}, {"measurement": "Physical stability (visual), Day 1", "setting": "[5]; [13]", "value": "Stable"}, {"measurement": "Physical stability (visual), Day 2", "setting": "[5]; [13]", "value": "Stable"}, {"measurement": "Physical stability (visual), Day 5", "setting": "[5]; [13]", "value": "Precipitated"}, {"measurement": "Physical stability (visual), Day 6", "setting": "[5]; [13]", "value": "Precipitated"}, {"measurement": "Physical stability (visual), Day 40", "setting": "[5]; [13]", "value": "Precipitated"}, {"measurement": "Physical stability (visual), Day 1", "setting": "[5]; [14]", "value": "Stable"}, {"measurement": "Physical stability (visual), Day 2", "setting": "[5]; [14]", "value": "Stable"}, {"measurement": "Physical stability (visual), Day 5", "setting": "[5]; [14]", "value": "Precipitated"}, {"measurement": "Physical stability (visual), Day 6", "setting": "[5]; [14]", "value": "Precipitated"}, {"measurement": "Physical stability (visual), Day 40", "setting": "[5]; [14]", "value": "Precipitated"}]}]}
